In patent US20040019018A1, “Rigid pyrrolidone modulators of pkc” (priority 2003, published 2004):

Assays:
whole brain PKC = assay: [3H]PDBu displacement from unresolved mixture of PKC isozymes from whole brain extracts; format: binding; settings: [3H]PDBu competition
Protocol: The ability of representative compounds of the invention to bind specific isozymes of PKC was determined using an assay (Example 13) in which displacement of [20-^3H]phorbol -12,13-dibutyrate ([^3H]PDBu) from either recombinant PKC isozymes prepared in a Baculovirus system, or unresolved mixture of isozymes of PKC isolated from whole brain extracts, was used. These procedures are described below. As described in detail below, preferred compounds for neurological effects are those in which affinity for α, β and γ isozymes is the greatest (i.e. those having the lowest Ki) relative to other isozymes as such as the δ- and ε-isozymes shown in Table 1. […]
Analysis of [20-^3H]phorbol 12,13-dibutyrate binding to PKC. […] Phosphatidylserine and bovine […] were obtained from Sigma Chemical Co. Binding was determined in an incubation volume of 250 μl, containing [^3H]PDBu, PKC, 0.05 M Tris-Cl, pH 7.4, 100 μg/ml phosphatidylserine, various concentrations of the ligand being assayed for competition of [^3H]PDBu binding, and bovine […] at 1 mg/ml. […] [^3H]PDBu was used at a concentration twice the Kd previously determined for the specific receptor. […]
Specific binding represents the difference between total binding and the non-specific binding, where the latter value was calculated from the partition coefficient and the measured free [^3H]PDBu concentration in each tube. […]

soluble APPα (sAPPα) = assay: Secretion of soluble APPα from human fibroblasts (Example 15); format: cell-based; settings: 10-20 μM, 2 hours
Protocol: Human fibroblasts from Alzheimer's patients (AD, cell line AG06848) or age-matched controls (AC, cell line AG07141) were grown to near confluence in DMEM containing 10% fetal bovine serum. On the day of the experiments, cells were rinsed twice with DMEM with no serum and incubated with the same […] for 2 hours at 37° C., 5% CO2. Cells were incubated for 2 additional hours with different concentrations of the drugs or equal volume of DMSO vehicle as control. The medium was collected and centrifuged at 1000 rpm to remove cell debris. Proteins were precipitated by addition of equal volume of 20% ice-cold tricholoroacetic acid (TCA) and incubation on ice for 60 minutes. The protein pellets were washed with ice-cold acetone and centrifuged for 30 minutes at 20,000 g for 30 minutes and dried overnight. Pellets were dissolved in electrophoresis buffer and proteins corresponding to the same concentration of protein were separated by SDS-PAGE and transferred to PVDF membranes according to the manufacturer's instructions. After electrophoresis, the membranes were blocked with Blotto and incubated overnight with a monoclonal antibody 6E10 (Synetek) that recognizes the APPα. After incubation with the secondary antibody, alkaline phosphatase anti-mouse IgG (Jackson's Laboratories), the membranes were developed using an alkaline phosphatase kit (BioRad) as per the manufacturer's instructions.

[1] = test system: LNCaP prostate cancer cells; assay: Induction of apoptosis in LNCaP prostate cancer cells (DAPI staining); format: cell-based
Protocol: The capacity of inducing apoptosis by compound (1) was evaluated in a model of LNCaP prostate cancer cells. It is well established that in this model phorbol esters (e.g., PMA) activate PKC to induce apoptosis (reference 13). LNCaP cells were treated with compound (1) for 1 h, and apoptosis was assessed 24 h later.
Control cells or cells infected for 14 h with adenoviruses for LacZ, PKCα, or PKCδ (multiplicity of infection=10 pfu/cell) were treated with different concentrations of compound (1) or PMA for 1 h. Cells were collected 24 h later and stained with DAPI. The incidence of apoptosis in each preparation was analyzed by counting 500 cells and determining the percentage of apoptotic cells. Results are the mean±standard error of three independent experiments.
It is well established that PKCα and PKCδ are the isozymes that mediate phorbol ester-induced apoptosis in LNCaP cells (references 13c-e). A model that has been used to assess isozyme-specificity is the overexpression of specific PKCs by an adenoviral system. Infection of LNCaP cells with adenoviruses for PKCs leads to a high expression of the corresponding PKC isozyme, as determined by Western-blot analysis, kinase activity, or [^3H]PDBu binding (reference 13e).

Row | SMILES | Ki (whole brain PKC) [µM] | secretion of soluble APPα (sAPPα) (soluble APPα (sAPPα)) | apoptotic effect in LNCaP cells ([1]; 1-30 μM, treated 1 h, apoptosis assessed 24 h later, FIG. 6A) | apoptotic effect with control adenovirus ([1]; LNCaP cells infected with LacZ adenovirus) | apoptotic response with overexpression of PKC isozymes ([1]; LNCaP cells infected with adenoviruses for PKCα or PKCδ)
1 | CCCCCCCCC#Cc1ccc2c(c1)C(C)(C(C)C)C1C(=O)NC(CO)C21 [Compound 1, (3S, 8R, 9S, 10S)-6-(dec-1′-ynyl)-3-hydroxymethyl-8-isopropyl-8-methyl-3,3a,8,8a-tetrahydro-2H-2-aza-cyclopenta[a]inden-1-one] | > 10 | increased the secretion of soluble APPα (sAPPα) significantly | induces a dose-dependent apoptotic effect | did not affect the apoptotic effect | markedly potentiates the apoptotic response
2 | CCCCCCCCCCCC(=O)Oc1ccc2c(c1)[C@](C)(C(C)C)[C@H]1C(=O)N[C@H](CO)[C@@H]21 [Compound 2, (3S, 8R, 9S, 10S)-6-dodecanoyloxyl-3-hydroxymethyl-8-isopropyl-8-methyl-3,3a,8,8a-tetrahydro-2H -2-aza-cyclopenta[a]inden-1-one] | > 10 |  |  |  | 
